This is an account of results in patent US20240398812A1 (Caraway Therapeutics, Inc., priority 2021, published 2024).

Each structure is given as a SMILES string. Some results are limits rather than exact numbers.

One assay concerns TRPMLs. To be noted: high concentrations needed; HEK293 cells expressing plasma-membrane TRPML1; cited from earlier work.
The target of another assay is human TRPML1 (Homo sapiens, UniProt Q9GZU1). The experiment in a line: Fluorescent TRPML1 assay (Fluo4-AM calcium fluorescence, HEK-293 Trex cells). The assay is classed as cell-based. In short, it runs like this: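 Tet-inducible HEK-293 Trex cells stably expressing surface-targeted mutant human TRPML1, induced with 0.5 ug/mL doxycycline overnight, loaded with Fluo4-AM and suspended in Ringer's with 10 mM calcium. Compounds tested from 20 μM to 6 nM final, half-log steps, in triplicate; fluorescence (ex 480/em 540) normalised to plate controls, EC50 by non-linear regression.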

For a further assay, the target named is T1, TRPML2 (Homo sapiens, UniProt Q8IZK6).
T1 construct: expressed in transfected cells
T1 sequence (Q8IZK6 1-566): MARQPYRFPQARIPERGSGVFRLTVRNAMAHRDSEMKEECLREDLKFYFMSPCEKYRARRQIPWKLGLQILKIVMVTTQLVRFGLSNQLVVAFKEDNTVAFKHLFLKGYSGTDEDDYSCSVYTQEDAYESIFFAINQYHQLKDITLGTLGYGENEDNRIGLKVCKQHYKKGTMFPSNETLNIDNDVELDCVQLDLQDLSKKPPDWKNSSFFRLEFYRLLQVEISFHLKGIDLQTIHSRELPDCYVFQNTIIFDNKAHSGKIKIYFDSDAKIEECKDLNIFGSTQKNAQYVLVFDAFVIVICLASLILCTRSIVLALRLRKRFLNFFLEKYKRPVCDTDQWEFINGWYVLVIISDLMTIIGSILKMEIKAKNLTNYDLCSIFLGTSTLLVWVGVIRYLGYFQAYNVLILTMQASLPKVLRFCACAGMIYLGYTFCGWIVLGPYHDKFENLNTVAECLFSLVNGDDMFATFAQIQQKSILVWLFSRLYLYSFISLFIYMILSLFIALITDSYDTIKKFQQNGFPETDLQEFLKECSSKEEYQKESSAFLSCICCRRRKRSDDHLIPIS
As to the kind of experiment: Fluorescent TRPML2 assay (as for TRPML1). The assay is classed as cell-based. In short, it runs like this: (§1)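 HEK-293 Trex cells with tet-inducible (0.5 ug/mL doxycycline, overnight) surface-targeted mutant channel, Fluo4-AM loaded, suspended in Ringer's with 10 mM calcium. Compounds tested 20 µM to 6 nM final, half-log steps, triplicate; fluorescence at ex 480/em 540 nm. EC50 by non-linear regression of percent activity versus plate controls.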

Another assay has as its target T2, TRPML3 (Homo sapiens, UniProt Q8TDD5).
T2 construct: expressed in transfected cells
T2 sequence (Q8TDD5 1-553): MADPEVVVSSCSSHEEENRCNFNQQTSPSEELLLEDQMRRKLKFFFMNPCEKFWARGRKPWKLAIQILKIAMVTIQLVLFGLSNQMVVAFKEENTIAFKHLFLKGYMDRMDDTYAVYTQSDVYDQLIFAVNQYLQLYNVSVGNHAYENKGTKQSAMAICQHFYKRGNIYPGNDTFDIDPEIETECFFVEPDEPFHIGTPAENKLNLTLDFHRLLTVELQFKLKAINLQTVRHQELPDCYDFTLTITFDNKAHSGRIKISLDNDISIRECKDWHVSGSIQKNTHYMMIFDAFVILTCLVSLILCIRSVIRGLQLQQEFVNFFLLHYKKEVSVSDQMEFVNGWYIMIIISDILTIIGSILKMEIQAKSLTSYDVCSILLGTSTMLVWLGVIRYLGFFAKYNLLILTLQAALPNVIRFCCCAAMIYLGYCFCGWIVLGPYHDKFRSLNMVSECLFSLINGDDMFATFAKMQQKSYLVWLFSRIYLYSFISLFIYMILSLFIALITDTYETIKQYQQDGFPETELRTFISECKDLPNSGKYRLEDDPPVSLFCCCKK
The experiment in a line: Fluorescent TRPML3 assay (as for TRPML1). The class given is cell-based. In short, it runs like this: as §1

Sequence of human TRPML1 (Q9GZU1 whole entry L15A/L16A/L577A/L578A, form open): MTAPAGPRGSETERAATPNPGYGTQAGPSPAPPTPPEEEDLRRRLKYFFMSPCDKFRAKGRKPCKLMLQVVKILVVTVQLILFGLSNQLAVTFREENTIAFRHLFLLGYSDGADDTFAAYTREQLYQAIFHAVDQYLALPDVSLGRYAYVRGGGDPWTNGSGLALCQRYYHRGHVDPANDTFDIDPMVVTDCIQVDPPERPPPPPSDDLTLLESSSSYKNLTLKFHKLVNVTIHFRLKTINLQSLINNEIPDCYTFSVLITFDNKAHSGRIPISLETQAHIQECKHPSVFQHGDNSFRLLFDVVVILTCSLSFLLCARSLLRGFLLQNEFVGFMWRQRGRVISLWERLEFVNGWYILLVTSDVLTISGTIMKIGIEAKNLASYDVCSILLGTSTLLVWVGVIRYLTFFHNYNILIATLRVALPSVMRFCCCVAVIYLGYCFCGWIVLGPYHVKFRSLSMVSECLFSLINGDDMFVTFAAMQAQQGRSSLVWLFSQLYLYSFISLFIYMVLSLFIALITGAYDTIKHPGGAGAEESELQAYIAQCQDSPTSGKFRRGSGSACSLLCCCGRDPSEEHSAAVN

Consider `CC1CC(C)(C)N(C(=O)CN2C(=O)c3ccccc3C2=O)c2ccccc21` (stereo not shown) [ML-SA1], for which, in the assay on TRPMLs, the “concentration needed to effectively activate TRPMLs” value is ~10 µM.

One may read the EC50 as the concentration that produces a half-maximal response. On to `C[C@@H]1CN(c2ncnc3c2c(C2CCC2)cn3-c2cc(C#N)ccn2)[C@@H](C)CN1C(=O)C(C)(C)C(F)(F)F` [Compound 240, 2-(5-cyclobutyl-4-((2S,5R)-2,5-dimethyl-4-(3,3,3-trifluoro-2,2-dimethylpropanoyl)piperazin-1-yl)-7H-pyrrolo[2,3-d]pyrimidin-7-yl)isonicotinonitrile], for which the EC50 on human TRPML1 (Table 3, compounds 201-283) was 100 to 500 nM; on TRPML2 (Table 3, compounds 201-283) it was 100 to 500 nM; at TRPML3 (Table 3, compounds 201-283), < 100 nM.

Take `COC(C)(C)C(=O)N1C[C@H](C)N(c2ncnc3c2c(C2CC2)cn3-c2cc(C#N)ccn2)C[C@H]1C` [Compound 264, 2-(5-cyclopropyl-4-((2S,5R)-4-(2-methoxy-2-methylpropanoyl)-2,5-dimethylpiperazin-1-yl)-7H-pyrrolo[2,3-d]pyrimidin-7-yl)isonicotinonitrile]: the EC50 on human TRPML1 (Table 3, compounds 201-283) is < 100 nM; on TRPML2 (Table 3, compounds 201-283), 500 to 2000 nM; on TRPML3 (Table 3, compounds 201-283) it was < 100 nM.

For the compound `C[C@@H]1CN(c2ncnc3c2c(C2CCC2)cn3-c2cccc(C(F)(F)F)c2)[C@@H](C)CN1C(=O)C(C)(C)C(F)(F)F` [Compound 263, 1-((2R,5S)-4-(5-cyclobutyl-7-(3-(trifluoromethyl)phenyl)-7H-pyrrolo[2,3-d]pyrimidin-4-yl)-2,5-dimethylpiperazin-1-yl)-3,3,3-trifluoro-2,2-dimethylpropan-1-one], the half-maximal effective concentration (EC50) at human TRPML1 (Table 3, compounds 201-283) is 100 to 500 nM; on TRPML2 (Table 3, compounds 201-283), 500 to 2000 nM; on TRPML3 (Table 3, compounds 201-283), < 100 nM.

As for `C[C@@H]1CN(c2ncnc3c2c(C2CCC2)cn3-c2cccc(C(F)(F)F)c2)[C@@H](C)CN1C(=O)C(C)(C)C` [Compound 261, 1-((2R,5S)-4-(5-cyclobutyl-7-(3-(trifluoromethyl)phenyl)-7H-pyrrolo[2,3-d]pyrimidin-4-yl)-2,5-dimethylpiperazin-1-yl)-2,2-dimethylpropan-1-one], the concentration giving a half-maximal response (EC50) on human TRPML1 (Table 3, compounds 201-283) was < 100 nM; at TRPML2 (Table 3, compounds 201-283), > 2000 nM; on TRPML3 (Table 3, compounds 201-283), 500 to 2000 nM.

`C[C@H]1CN(C(=O)C(C)(C)C)CCN1c1ncnc2c1c(-c1ccccn1)cn2-c1cc(C#N)ccn1` [Compound 117, (S)-2-(4-(2-methyl-4-pivaloylpiperazin-1-yl)-5-(pyridin-2-yl)-7H-pyrrolo[2,3-d]pyrimidin-7-yl)isonicotinonitrile]: the EC50 on human TRPML1 (Table 3, compounds 101-177) was < 100 nM; at TRPML2 (Table 3, compounds 101-177), 500 to 2000 nM; at TRPML3 (Table 3, compounds 101-177), 100 to 500 nM.

As for `C[C@H]1CN(C(=O)C(C)(C)C)CCN1c1ncnc2c1c(C1CC1)cn2-c1cc(C#N)ccn1` [Compound 104, (S)-2-(5-cyclopropyl-4-(2-methyl-4-pivaloylpiperazin-1-yl)-7H-pyrrolo[2,3-d]pyrimidin-7-yl)isonicotinonitrile], the concentration for a half-maximal effect (EC50) at human TRPML1 (Table 3, compounds 101-177) was < 100 nM; on TRPML2 (Table 3, compounds 101-177) it was 500 to 2000 nM; at TRPML3 (Table 3, compounds 101-177), < 100 nM.

Regarding `C[C@@H]1CN(c2ncnc3c2c(C2CCC2)cn3-c2cccc(F)c2)[C@@H](C)CN1C(=O)CC(C)(C)C(F)(F)F` [Compound 251, 1-((2R,5S)-4-(5-cyclobutyl-7-(3-fluorophenyl)-7H-pyrrolo[2,3-d]pyrimidin-4-yl)-2,5-dimethylpiperazin-1-yl)-4,4,4-trifluoro-3,3-dimethylbutan-1-one], the EC50 fell in the range of 100 to 500 nM at human TRPML1 (Table 3, compounds 201-283); 500 to 2000 nM on TRPML2 (Table 3, compounds 201-283); 100 to 500 nM on TRPML3 (Table 3, compounds 201-283).

On to `C[C@H]1CN(C(=O)[C@@H](F)C(C)(C)C)CCN1c1ncnc2c1c(C1CC1)cn2-c1cc(C#N)ccn1` (single isomer, unassigned) [Compound 203], for which the EC50 at human TRPML1 (Table 3, compounds 201-283) is < 100 nM; at TRPML2 (Table 3, compounds 201-283), < 100 nM; on TRPML3 (Table 3, compounds 201-283), < 100 nM.

On to `C[C@@H]1CN(c2ncnc3c2c(C2CCC2)cn3-c2cccc(Cl)c2)[C@@H](C)CN1C(=O)C(C)(C)C` [Compound 253, 1-((2R,5S)-4-(7-(3-chlorophenyl)-5-cyclobutyl-7H-pyrrolo[2,3-d]pyrimidin-4-yl)-2,5-dimethylpiperazin-1-yl)-2,2-dimethylpropan-1-one], for which the EC50 was < 100 nM at human TRPML1 (Table 3, compounds 201-283); 500 to 2000 nM at TRPML2 (Table 3, compounds 201-283); 100 to 500 nM on TRPML3 (Table 3, compounds 201-283).

As to `CC(C)C(=O)N1CCN(c2ncnc3c2c(-c2ccccc2F)cn3-c2cc(C#N)ccn2)C(C)(C)C1` [Compound 149, 2-(5-(2-fluorophenyl)-4-(4-isobutyryl-2,2-dimethylpiperazin-1-yl)-7H-pyrrolo[2,3-d]pyrimidin-7-yl)isonicotinonitrile], the EC50 on human TRPML1 (Table 3, compounds 101-177) is < 100 nM; at TRPML2 (Table 3, compounds 101-177), < 100 nM; at TRPML3 (Table 3, compounds 101-177) it was < 100 nM.

With `C[C@@H]1CN(c2ncnc3c2c(-c2ccccc2)cn3-c2cc(C#N)ccn2)CCN1C(=O)C(C)(C)C` [Compound 121, (R)-2-(4-(3-methyl-4-pivaloylpiperazin-1-yl)-5-phenyl-7H-pyrrolo[2,3-d]pyrimidin-7-yl)isonicotinonitrile], the EC50 is < 100 nM at human TRPML1 (Table 3, compounds 101-177); 100 to 500 nM on TRPML2 (Table 3, compounds 101-177); < 100 nM on TRPML3 (Table 3, compounds 101-177).

For `C[C@H]1CN(C(=O)[C@H](F)C(C)(C)C)CCN1c1ncnc2c1c(C1CC1)cn2-c1cc(C#N)ccn1` (single isomer, unassigned) [Compound 202], the concentration giving a half-maximal response (EC50) at human TRPML1 (Table 3, compounds 201-283) is < 100 nM; on TRPML2 (Table 3, compounds 201-283), < 100 nM; on TRPML3 (Table 3, compounds 201-283) it was < 100 nM.

In the case of `C[C@@H]1CN(c2ncnc3c2c(N2CCC2)cn3-c2cccc(Cl)c2)[C@@H](C)CN1C(=O)C(C)(C)C` [Compound 220, 1-((2R,5S)-4-(5-(azetidin-1-yl)-7-(3-chlorophenyl)-7H-pyrrolo[2,3-d]pyrimidin-4-yl)-2,5-dimethylpiperazin-1-yl)-2,2-dimethylpropan-1-one], the 50% effective concentration (EC50) at human TRPML1 (Table 3, compounds 201-283) was < 100 nM; at TRPML2 (Table 3, compounds 201-283) it was 100 to 500 nM; on TRPML3 (Table 3, compounds 201-283) it was < 100 nM.

Consider `C[C@@H]1CN(c2ncnc3c2c(-c2ccccc2F)cn3-c2cc(C#N)ccn2)[C@@H](C)CN1C(=O)C1(F)CC1` [Compound 235, 2-(4-((2S,5R)-4-(1-fluorocyclopropane-1-carbonyl)-2,5-dimethylpiperazin-1-yl)-5-(2-fluorophenyl)-7H-pyrrolo[2,3-d]pyrimidin-7-yl)isonicotinonitrile], for which the EC50 at human TRPML1 (Table 3, compounds 201-283) is < 100 nM; at TRPML2 (Table 3, compounds 201-283), 100 to 500 nM; at TRPML3 (Table 3, compounds 201-283) it was 500 to 2000 nM.

For `C[C@@H]1CN(c2ncnc3c2c(-c2ccccc2F)cn3-c2cc(C#N)ccn2)CCN1C(=O)C1(F)CC1` [Compound 131], the concentration for a half-maximal effect (EC50) is < 100 nM on human TRPML1 (Table 3, compounds 101-177); 100 to 500 nM at TRPML2 (Table 3, compounds 101-177); < 100 nM at TRPML3 (Table 3, compounds 101-177).

For `CC(C)C(=O)N1CCN(c2ncnc3c2c(-c2ccccc2F)cn3-c2cc(C#N)ccn2)C2(CC2)C1` [Compound 155, 2-(5-(2-fluorophenyl)-4-(7-isobutyryl-4,7-diazaspiro[2.5]octan-4-yl)-7H-pyrrolo[2,3-d]pyrimidin-7-yl)isonicotinonitrile], the EC50 was < 100 nM on human TRPML1 (Table 3, compounds 101-177); 100 to 500 nM on TRPML2 (Table 3, compounds 101-177); < 100 nM at TRPML3 (Table 3, compounds 101-177).
